Like-named read-outs stand apart in the source and are kept apart here.
Tests used:
Format in all cases: cell-based
[1] = tested on: SK-MEL-2; test: NCI60 five-dose screen, Melanoma; conditions: Homo sapiens
[2] = tested on: KM12; test: NCI60 five-dose screen, Colon Cancer; conditions: Homo sapiens
[3] = tested on: UACC-62; test: NCI60 five-dose screen, Melanoma; conditions: Homo sapiens
[4] = tested on: M14; test: NCI60 five-dose screen, Melanoma; conditions: Homo sapiens
[5] = tested on: 60 human tumor cell lines (NCI60); test: NCI60 five-dose screen, whole panel and sub-panel means
[6] = tested on: HOP-62; test: NCI60 five-dose screen, Non-small Cell Lung Cancer; conditions: Homo sapiens
[7] = tested on: ACHN; test: NCI60 five-dose screen, Renal Cancer; conditions: Homo sapiens
[8] = tested on: CCRF-CEM; test: NCI60 five-dose screen, Leukemia; conditions: Homo sapiens
[9] = tested on: SR; test: NCI60 five-dose screen, Leukemia; conditions: Homo sapiens
[10] = tested on: A549/ATCC; test: NCI60 five-dose screen, Non-small Cell Lung Cancer; conditions: Homo sapiens
[11] = tested on: SN12C; test: NCI60 five-dose screen, Renal Cancer; conditions: Homo sapiens
[12] = tested on: COLO 205; test: NCI60 five-dose screen, Colon Cancer; conditions: Homo sapiens
[13] = tested on: SF-539; test: NCI60 five-dose screen, CNS Cancer; conditions: Homo sapiens
[14] = tested on: SF-295; test: NCI60 five-dose screen, CNS Cancer; conditions: Homo sapiens
[15] = tested on: SK-OV-3; test: NCI60 five-dose screen, Ovarian Cancer; conditions: Homo sapiens
[16] = tested on: HCT-116; test: NCI60 five-dose screen, Colon Cancer; conditions: Homo sapiens
[17] = tested on: SNB-19; test: NCI60 five-dose screen, CNS Cancer; conditions: Homo sapiens
[18] = tested on: MOLT-4; test: NCI60 five-dose screen, Leukemia; conditions: Homo sapiens
[19] = tested on: DU-145; test: NCI60 five-dose screen, Prostate Cancer; conditions: Homo sapiens
[20] = tested on: RPMI-8226; test: NCI60 five-dose screen, Leukemia; conditions: Homo sapiens
[21] = tested on: UO-31; test: NCI60 five-dose screen, Renal Cancer; conditions: Homo sapiens
[22] = tested on: BT-549; test: NCI60 five-dose screen, Breast Cancer; conditions: Homo sapiens
[23] = tested on: NCI-H322M; test: NCI60 five-dose screen, Non-small Cell Lung Cancer; conditions: Homo sapiens
[24] = tested on: A498; test: NCI60 five-dose screen, Renal Cancer; conditions: Homo sapiens
[25] = tested on: HS 578T; test: NCI60 five-dose screen, Breast Cancer; conditions: Homo sapiens
[26] = tested on: 786–0; test: NCI60 five-dose screen, Renal Cancer; conditions: Homo sapiens
[27] = tested on: SW-620; test: NCI60 five-dose screen, Colon Cancer; conditions: Homo sapiens
[28] = tested on: MDA-MB-468; test: NCI60 five-dose screen, Breast Cancer; conditions: Homo sapiens
[29] = tested on: MCF7; test: NCI60 five-dose screen, Breast Cancer; conditions: Homo sapiens
[30] = tested on: OVCAR-5; test: NCI60 five-dose screen, Ovarian Cancer; conditions: Homo sapiens
[31] = tested on: OVCAR-3; test: NCI60 five-dose screen, Ovarian Cancer; conditions: Homo sapiens
[32] = tested on: PC-3; test: NCI60 five-dose screen, Prostate Cancer; conditions: Homo sapiens
[33] = tested on: SK-MEL-28; test: NCI60 five-dose screen, Melanoma; conditions: Homo sapiens
[34] = tested on: MDA-MB231ATCC; test: NCI60 five-dose screen, Breast Cancer; conditions: Homo sapiens, MDA-MB-231
[35] = Renal Cancer, five-dose screen, read-out: GI50
[36] = Leukemia, five-dose screen, read-out: GI50

CC[C@]12C=CCN3CC[C@@]4(c5ccc(OC)cc5N(C)[C@H]4[C@@](O)(C(=O)OC)[C@@H]1OC(=O)CCCN1CCN(C(c4ccc(F)cc4)c4ccc(F)cc4)CC1)[C@@H]32 [Compound 25]
GI50 ([1]; SK-MEL-2): 2400 nM | GI50 ([2]; KM12): 1780 nM | GI50 ([3]; UACC-62): 1780 nM | GI50 ([4]; M14): 1910 nM | GI50 ([5]; Homo sapiens, 60 cell, read-out: GI50 Mean, mean over all 60 cell lines): 1850 nM | GI50 ([5]; Homo sapiens, on almost all cell lines, five-dose screen): < 2000 nM | GI50 ([5]; Homo sapiens, read-out: GI50 Mean, mean over Breast Cancer panel): 1670 nM | GI50 ([5]; Homo sapiens, read-out: GI50 Mean, mean over CNS Cancer panel): 2210 nM | GI50 ([5]; Homo sapiens, read-out: GI50 Mean, mean over Colon Cancer panel): 1730 nM | GI50 ([5]; Homo sapiens, read-out: GI50 Mean, mean over Leukemia panel): 1760 nM | GI50 ([5]; Homo sapiens, read-out: GI50 Mean, mean over Melanoma panel): 1780 nM | GI50 ([5]; Homo sapiens, read-out: GI50 Mean, mean over Non-small Cell Lung Cancer panel): 1850 nM | GI50 ([5]; Homo sapiens, read-out: GI50 Mean, mean over Ovarian Cancer panel): 1730 nM | GI50 ([5]; Homo sapiens, read-out: GI50 Mean, mean over Prostate Cancer panel): 1650 nM | GI50 ([5]; Homo sapiens, read-out: GI50 Mean, mean over Renal Cancer panel): 2180 nM | GI50 ([6]; HOP-62): 1620 nM | GI50 [7]: 2090 nM | GI50 [8]: 2040 nM | GI50 [9]: 1700 nM | GI50 ([10]; A549): 2630 nM | GI50 [11]: 1660 nM | GI50 ([12]; COLO 205): 1660 nM | GI50 ([13]; SF-539): 1660 nM | GI50 ([14]; SF-295): 1700 nM | GI50 ([15]; SK-OV-3): 1550 nM | GI50 ([16]; HCT-116): 1780 nM | GI50 ([17]; SNB-19): 1660 nM | GI50 ([18]; MOLT-4): 1450 nM | GI50 ([19]; DU-145): 1780 nM | GI50 ([20]; RPMI-8226): 1950 nM | GI50 ([21]; UO-31): 1660 nM | GI50 ([22]; BT-549): 1780 nM | GI50 [23]: 1950 nM | GI50 ([24]; A498): 5250 nM | GI50 ([25]; Hs-578T): 1780 nM | GI50 ([26]; 786-0): 1580 nM | GI50 ([27]; SW-620): 1620 nM | GI50 ([28]; MDA-MB-468): 1510 nM | GI50 ([29]; MCF7): 1700 nM | GI50 ([30]; OVCAR-5): 1660 nM | GI50 ([31]; OVCAR-3): 1740 nM | GI50 ([32]; PC-3): 1510 nM | GI50 ([33]; SK-MEL-28): 1740 nM | GI50 [34]: 1580 nM

CC[C@]12C=CCN3CC[C@@]4(c5ccc(OC)cc5N(C)[C@H]4[C@@](O)(C(=O)OC)[C@@H]1OC(=O)CCC(=O)N1CCN(C(c4ccc(F)cc4)c4ccc(F)cc4)CC1)[C@@H]32 [Compound 31]
GI50 ([1]; SK-MEL-2, Melanoma, five-dose screen, read-out: GI50): 1620 nM | GI50 ([2]; KM12, Colon Cancer, five-dose screen, read-out: GI50): 2360 nM | GI50 ([3]; UACC-62, Melanoma, five-dose screen, read-out: GI50): 1920 nM | GI50 ([4]; M14, Melanoma, five-dose screen, read-out: GI50): 3550 nM | GI50 ([5]; Homo sapiens, 60 cell, mean over all 60 cell lines, read-out: GI50 Mean): < 4000 nM | GI50 ([5]; Homo sapiens, mean over Breast Cancer panel, read-out: GI50 Mean): 2000 nM | GI50 ([5]; Homo sapiens, mean over CNS Cancer panel, read-out: GI50 Mean): 2600 nM | GI50 ([5]; Homo sapiens, mean over Colon Cancer panel, read-out: GI50 Mean): 2230 nM | GI50 ([5]; Homo sapiens, mean over Leukemia panel, read-out: GI50 Mean): 1890 nM | GI50 ([5]; Homo sapiens, mean over Melanoma panel, read-out: GI50 Mean): 2400 nM | GI50 ([5]; Homo sapiens, mean over Non-small Cell Lung Cancer panel, read-out: GI50 Mean): 2590 nM | GI50 ([5]; Homo sapiens, mean over Ovarian Cancer panel, read-out: GI50 Mean): 2150 nM | GI50 ([5]; Homo sapiens, mean over Prostate Cancer panel, read-out: GI50 Mean): 2270 nM | GI50 ([5]; Homo sapiens, mean over Renal Cancer panel, read-out: GI50 Mean): 2330 nM | GI50 ([5]; mean over all 60 cell lines, read-out: GI50 Mean): 2290 nM | GI50 ([6]; HOP-62, Non-small Cell Lung Cancer, five-dose screen, read-out: GI50): 2550 nM | GI50 [7, 35]: 2060 nM | GI50 [8, 36]: 2110 nM | GI50 [9, 36]: 1630 nM | GI50 ([10]; A549/ATCC, Non-small Cell Lung Cancer, five-dose screen, read-out: GI50): 2670 nM | GI50 [11, 35]: 1470 nM | GI50 ([12]; COLO 205, Colon Cancer, five-dose screen, read-out: GI50): 2820 nM | GI50 ([13]; SF-539, CNS Cancer, five-dose screen, read-out: GI50): 2020 nM | GI50 ([14]; SF-295, CNS Cancer, five-dose screen, read-out: GI50): 2110 nM | GI50 ([15]; SK-OV-3, Ovarian Cancer, five-dose screen, read-out: GI50): 2020 nM | GI50 ([16]; HCT-116, Colon Cancer, five-dose screen, read-out: GI50): 2720 nM | GI50 ([17]; SNB-19, CNS Cancer, five-dose screen, read-out: GI50): 3580 nM | GI50 ([18]; MOLT-4, Leukemia, five-dose screen, read-out: GI50): 1350 nM | GI50 ([19]; DU-145, Prostate Cancer, five-dose screen, read-out: GI50): 2670 nM | GI50 ([20]; RPMI-8226, Leukemia, five-dose screen, read-out: GI50): 1420 nM | GI50 ([21]; UO-31, Renal Cancer, five-dose screen, read-out: GI50): 2320 nM | GI50 ([22]; BT-549, Breast Cancer, five-dose screen, read-out: GI50): 1810 nM | GI50 ([23]; Non-small Cell Lung Cancer, five-dose screen, read-out: GI50): 4990 nM | GI50 ([24]; A498, Renal Cancer, five-dose screen, read-out: GI50): 2380 nM | GI50 ([25]; HS 578T, Breast Cancer, five-dose screen, read-out: GI50): 1740 nM | GI50 ([26]; 786–0, Renal Cancer, five-dose screen, read-out: GI50): 2470 nM | GI50 ([27]; SW-620, Colon Cancer, five-dose screen, read-out: GI50): 2270 nM | GI50 ([28]; MDA-MB-468, Breast Cancer, five-dose screen, read-out: GI50): 1200 nM | GI50 ([29]; MCF7, Breast Cancer, five-dose screen, read-out: GI50): 1740 nM | GI50 ([30]; OVCAR-5, Ovarian Cancer, five-dose screen, read-out: GI50): 2180 nM | GI50 ([31]; OVCAR-3, Ovarian Cancer, five-dose screen, read-out: GI50): 1600 nM | GI50 ([32]; PC-3, Prostate Cancer, five-dose screen, read-out: GI50): 1860 nM | GI50 ([33]; SK-MEL-28, Melanoma, five-dose screen, read-out: GI50): 3260 nM | GI50 ([34]; MDA-MB231ATCC, Breast Cancer, five-dose screen, read-out: GI50): 3020 nM
